The values that follow come from ChEMBL document CHEMBL1240395 (Antimicrob Agents Chemother, 2010).

In brackets after ≈: the same amount, converted by molar mass. Several values for one entry are separate records, joined by “and”; a condition that tells them apart may be missing. Equal values may be shown once.

The subject of series [1] is HCT-8. The series is described as follows: Cytotoxicity against human HCT8 cells at 1.96 to 22.7 uM. It counts as cell-based. The note with it: hct-8, 22.7 µM.
Series [2] relates to Cryptosporidium parvum. The series is described as follows: Antiparasitic activity against Cryptosporidium parvum infected in human […] cells after 46 hrs by immunofluorescence method. It counts as functional, organism-based.
Series [3] relates to HCT-8. In words: Cytotoxicity against human HCT8 cells assessed as effect on cell viability at 25.69 to 37.22 uM. The note with it: hct-8, 37.22 µM. In kind it is cell-based.
Where [4] appears, read: Cryptosporidium parvum, HCT-8, 46 h, read-out: IC50.

As usually defined, the IC50 is the concentration that gives 50% inhibition. For the compound `Cc1ccc(C(=O)Nc2ncc(Br)s2)c(O)c1`, the Activity entry in series [1] is “Non-toxic”. For the same compound, the values for the 50% inhibitory concentration (IC50) in series [2] (setting [4]) and in series [2] (htc8) were 5.2 µg/mL (≈ 16.6 µM) and 9.3 µg/mL (≈ 29.7 µM), respectively.
As to `CC(=O)Oc1c(C)cccc1C(=O)Nc1ncc(Br)s1`, the Activity result is listed as “Non-toxic” in series [1] and “Toxic” in series [3].
For `Cc1nc(NC(=O)c2ccccc2O)sc1[N+](=O)[O-]`, the Activity entry is “Non-toxic” in series [1] and “Toxic” in series [3]. Further, the concentration for half-maximal inhibition (IC50) turned out to be 0.6 µg/mL (≈ 2.15 µM) in series [2] (setting [4]) and 1 µg/mL (≈ 3.58 µM) in series [2] (htc8).
In the case of `CCCc1cnc(NC(=O)c2ccccc2O)s1`, the Activity result in series [1] is reported as “Non-toxic”. Also, the IC50 in series [2] (setting [4]) was 6.7 µg/mL (≈ 25.5 µM); in series [2] (htc8), “Not Active”.
Take `O=C(Nc1nc(-c2ccccc2)c(Br)s1)c1ccccc1O`: the Activity result in series [1] is recorded as “Non-toxic”; in series [3], “Toxic”. In addition, in series [2] (htc8), the IC50 was 0.4 µg/mL and 1 µg/mL.
Consider `Cc1ccc(O)c(C(=O)Nc2ncc(Cl)s2)c1`, for which the Activity entry in series [1] was “Non-toxic”.
As for `COc1cccc(C(=O)Nc2ncc([N+](=O)[O-])s2)c1O`, the Activity entry is “Non-toxic” in series [1] and “Toxic” in series [3]. For the same compound, in series [2] (htc8), the IC50 was 0.4 µg/mL and 1 µg/mL.
Take `CSc1nnc(NC(=O)c2ccccc2OC(C)=O)s1`: the Activity entry is recorded as “Non-toxic” in series [1] and “Toxic” in series [3]. The IC50 amounted to 6.4 µg/mL (≈ 20.7 µM) in series [2] (setting [4]) and 9.2 µg/mL (≈ 29.7 µM) in series [2] (htc8).
The corresponding values for `O=C(Nc1ncc(-c2ccccc2Cl)s1)c1ccccc1O` are “Non-toxic”, “Toxic”, 6.1 µg/mL (≈ 18.4 µM) and “Not Active”.
For the compound `O=C(Nc1ncc(F)s1)c1ccccc1O`, the Activity result in series [1] was “Non-toxic”; in series [3] it was “Toxic”.
`CC(=O)Oc1c(C)cccc1C(=O)Nc1ncc([N+](=O)[O-])s1`: the values for the Activity result in series [1] and in series [3] were “Non-toxic” and “Toxic”, respectively. In addition, the IC50 in series [2] (setting [4]) worked out at 0.5 µg/mL (≈ 1.56 µM); in series [2] (htc8) it was 1 µg/mL (≈ 3.11 µM).
As to `Cc1ccc(C(=O)Nc2ncc(Cl)s2)c(O)c1`, the Activity entry is “Non-toxic” in series [1] and “Toxic” in series [3].
Regarding `Cc1nc(NC(=O)c2ccccc2O)sc1Br`, the Activity entry in series [1] is recorded as “Non-toxic”; in series [3], “Toxic”.
Consider `CC(=O)Oc1cc(C)ccc1C(=O)Nc1ncc(Br)s1`, for which, in series [1], the Activity entry is given as “Non-toxic”.
For the compound `CC(=O)Oc1ccccc1C(=O)Nc1ncc(Br)s1`, the Activity result in series [1] is recorded as “Non-toxic”.
Turning to `CS(=O)(=O)c1cnc(NC(=O)c2ccccc2O)s1`, the Activity result in series [1] is given as “Non-toxic”. Also, the concentration for half-maximal inhibition (IC50) in series [2] (setting [4]) was 6.9 µg/mL (≈ 23.1 µM); in series [2] (htc8), “Not Active”.
Take `CC(=O)Oc1ccccc1C(=O)Nc1nc(C)c(Br)s1`: the Activity result in series [1] is “Non-toxic”. Further, the IC50 in series [2] (htc8) was 2.1 µg/mL and 4.8 µg/mL.
Take `Cc1cccc(C(=O)Nc2ncc(Br)s2)c1O`: the Activity entry in series [1] is on record as “Non-toxic”; in series [3] it was “Toxic”.
With `Cc1cnc(NC(=O)c2ccccc2O)s1`, in series [1], the Activity entry is given as “Non-toxic”. In addition, the concentration for half-maximal inhibition (IC50) was more than 10 µg/mL in series [2] (setting [4]) and “Not Active” in series [2] (htc8).
As for `COc1ccccc1C(=O)Nc1ncc([N+](=O)[O-])s1`, the Activity result in series [1] was “Non-toxic”. Also, the IC50 is 5.5 µg/mL (≈ 19.7 µM) in series [2] (setting [4]) and “Not Active” in series [2] (htc8).
As to `CC(=O)Oc1ccccc1C(=O)Nc1ncc([N+](=O)[O-])s1` [NITAZOXANIDE], in series [1], the Activity result is listed as “Non-toxic”.
As to `CC(=O)Oc1ccccc1C(=O)Nc1ncc(S(C)(=O)=O)s1`, the Activity entry in series [1] is “Non-toxic”. In addition, the IC50 in series [2] (setting [4]) is 5 µg/mL (≈ 14.7 µM); in series [2] (htc8) it was “Not Active”.
Take `O=C(Nc1ncc(Br)s1)c1ccccc1O`: the Activity entry in series [1] is on record as “Non-toxic”.
With `CC(=O)Oc1ccccc1C(=O)Nc1nnc(C(F)(F)F)s1`, the Activity result in series [1] is listed as “Non-toxic”.
Consider `COc1cccc(C(=O)Nc2ncc(Br)s2)c1OC(C)=O`, for which the Activity result in series [1] was “Non-toxic”. The results for the IC50 in series [2] (setting [4]) and in series [2] (htc8) were 4.6 µg/mL (≈ 12.4 µM) and “Not Active”, respectively.
The corresponding values for `O=C(Nc1ncc(C2CCCCC2)s1)c1ccccc1O` are “Non-toxic”, more than 10 µg/mL and “Not Active”.
As to `Cc1cccc(C(=O)Nc2nc(C)c(Br)s2)c1O`, the Activity entry in series [1] was “Non-toxic”; in series [3], “Toxic”.
As to `CCOC(=O)Cc1csc(NC(=O)c2ccccc2OC(C)=O)n1`, the Activity entry in series [1] was “Non-toxic”. Further, the IC50 in series [2] (setting [4]) is 8.4 µg/mL (≈ 24.1 µM); in series [2] (htc8) it was “Not Active”.
`O=C(Nc1nccs1)c1ccccc1O`: in series [1], the Activity result was “Non-toxic”. Besides, the values for the IC50 in series [2] (setting [4]) and in series [2] (htc8) were more than 10 µg/mL and “Not Active”, respectively.
On to `CC(=O)Oc1ccc(C)cc1C(=O)Nc1ncc(Cl)s1`, for which the Activity entry in series [1] is listed as “Non-toxic”; in series [3] it was “Toxic”.
Consider `CCOC(=O)Cc1nnc(NC(=O)c2ccccc2OC(C)=O)s1`, for which the Activity result in series [1] is “Non-toxic”. Besides, the IC50 is more than 10 µg/mL in series [2] (setting [4]) and “Not Active” in series [2] (htc8).
On to `CC(=O)Oc1ccccc1C(=O)Nc1nncs1`, for which the Activity result in series [1] is “Non-toxic”. The values for the IC50 in series [2] (setting [4]) and in series [2] (htc8) were 5 µg/mL (≈ 19 µM) and “Not Active”, respectively.
Take `O=C(Nc1ncc(Cl)s1)c1ccccc1O`: the values for the Activity entry in series [1] and in series [3] were “Non-toxic” and “Toxic”, respectively. Besides, in series [2] (htc8), the IC50 was 2.6 µg/mL and 6 µg/mL.
On to `Cc1cccc(C(=O)Nc2nc(-c3ccccc3)c(Br)s2)c1O`, for which the results for the Activity entry in series [1] and in series [3] were “Non-toxic” and “Toxic”, respectively.
As to `Cc1cccc(C(=O)Nc2ncc(Cl)s2)c1O`, the results for the Activity result in series [1] and in series [3] were “Non-toxic” and “Toxic”, respectively. Besides, the results for the IC50 in series [2] (setting [4]) and in series [2] (htc8) were 2.3 µg/mL (≈ 8.56 µM) and 4.6 µg/mL (≈ 17.1 µM), respectively.
In the case of `CC(=O)Oc1ccc(C)cc1C(=O)Nc1ncc(Br)s1`, the Activity result is given as “Non-toxic” in series [1] and “Toxic” in series [3]. The IC50 in series [2] (htc8) is 1.7 µg/mL and 4.4 µg/mL.
